Where a SMILES comes first, the peptide text is derived from it. Where no end group is shown, it is not given here. [ ]: non-standard residue; d: D form. Ahx = NCCCCCC(=O)O
Key:
[1] = Solubility of test peptides (Table 1; PBSA); conditions: for Soluble: Table 1
Procedure: (§4) The solubility and aggregation properties of the test peptides were assessed by visual observation, analytical ultracentrifugation, and/or dynamic light scattering.

[2] = test system: Aβ; conditions: literature, cited from earlier work
[3] = test system: Aβ toxicity; conditions: literature; cited from earlier work
[4] = test system: PC-12 cells; test: Cellular toxicity (MTT assay): protection from Aβ(1-39) toxicity; type: cell-based; conditions: both molar ratios tested (2:1 and 1:1)
Procedure: (§1) Solutions of recognition or hybrid peptides were prepared by direct dissolution of lyophilized peptide into sterile PBS (with antibiotics). Aβ(1-39) was dissolved in 0.1% TFA at 10 mg/ml, then diluted twenty-fold into sterile PBS (with antibiotics) or PBS containing the hybrid or recognition peptides. Solutions were prepared at 2:1 or 1:1 peptide:Aβ molar ratio. The samples were incubated at room temperature for 7 days, then diluted five-fold with medium and incubated for one day. As a control, PBS was diluted 5:1 with medium and added to some wells.
Freshly-prepared solutions of Aβ(1-39) were not toxic to the cells, consistent with other reports in the literature (Shearman, et al., supra). None of the test peptides alone were toxic. […] FIG. 4 graphs the effect of recognition and hybrid peptides on Aβ toxicity. Aβ(0.5 mg/ml) was incubated with the recognition peptide at a 1:2 Aβ:peptide molar ratio (A), or with the hybrid peptides at a 1:1 or 1:2 Aβ:peptide molar ratio (B), for one week, following which the solution was diluted five-fold and added to monolayer cultures of PC-12 cells. Cell viability was assessed with the MTT assay; results are reported relative to untreated wells. […] The ability of each peptide to protect cells from Aβ toxicity was assessed by a upper-tailed t-test; *, p<0.01; **, p<0.001.

[5] = biological target: T1, Aβ(1-39) (Homo sapiens, UniProt P05067); test: Circular dichroism spectroscopy, effect of peptide on Aβ(1-39) spectra; type: biochemical; conditions: Aβ(1-39):peptide 1:2 molar ratio
T1 construct: A peptide homologous to the first 39 residues of Aβ, Aβ(1-39), was purchased from AnaSpec, Inc; purchased AnaSpec, Inc. (San Jose, Calif.)
T1 sequence (P05067 672-710): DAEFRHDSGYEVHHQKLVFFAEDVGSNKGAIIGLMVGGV
Procedure: (§2) β(1-39), 15-25-K6, or a mixture of β(1-39) and 15-25-K6 (1:2 molar ratio) were dissolved in 0.01 M phosphate buffer, pH 7.2. The final concentration was 0.5 mg/ml for each peptide. The solution was passed through a 0.45 μm Millipore (Bedford, Mass.) filter to remove dust and then degassed. Circular dichroism spectra in the far UV (190-240 nm) were obtained using a modified Cary Model 60 spectropolarimeter (On-line Instrument Systems, Bogart, Calif.) and analyzed for secondary structure as described (Shen, C.-L., et al., Biophys. J. 65:2383-2395, 1993).
(§3) Circular dichroism spectra of Aβ(1-39) and 15-25-K6 in phosphate buffer (0.1 M. pH 7.4) were collected and quantitatively analyzed for secondary structure. Aβ(1-39) was 65% β-sheet and 30% random coil (spectra not shown), in line with previous measurements (Shen, C.-L., et al., supra, 1994). The secondary structure of 15-25-K6 was essentially the same (64% Aβ-sheet, 36% random coil, data not shown).

[6] = biological target: T1, Aβ(1-39); test: Dynamic light scattering, Aβ(1-39) aggregation kinetics; type: biochemical; conditions: Aβ 0.5 mg/ml, peptide:Aβ molar ratio 2:1
Procedure: Lyophilized Aβ(1-39) was solubilized in 0.1% TFA at 10 mg/ml, then diluted twenty-fold into PBSA or into PBSA containing the test peptide. PBSA was double-filtered through a 0.22 μm filter prior to use. pH was adjusted to 7.4 with 0.5 N NaOH, then the sample was immediately filtered through a 0.45 μm filter directly into a clean light scattering cuvette. In all cases Aβ(1-39) concentration was 0.5 mg/ml and the molar ratio of test peptide to Aβ was 2:1 unless otherwise indicated. Autocorrelation functions at 90° scattering angle were collected as described previously (Shen, et al., 1994, supra). Data were fit using the method of cumulants to derive and apparent hydrodynamic radius.
The effect of the test peptides on aggregation kinetics of Aβ(1-39) was assessed by dynamic light scattering (FIG. 1). FIG. 1 graphs the effect of recognition and hybrid peptides on Aβ aggregation kinetics. Final Aβ concentration was 0.5 mg/ml, Aβ:peptide molar ratio was 1:2 except where indicated. The hydrodynamic radius (measured at a 90° scattering angle) was measured as a function of time.

[7] = Circular dichroism spectroscopy, secondary structure of peptide alone; type: physicochemical; conditions: phosphate buffer (0.1 M, pH 7.4)
Procedure: as §2, §3

[8] = test system: PC-12 cells; test: Cellular toxicity (MTT assay): effect on Aβ(25-35) toxicity; type: cell-based; conditions: co-incubation with Aβ(25-35)
Procedure: as §1
15-25-K6 shares essentially no homology with Aβ(25-35), which also forms fibrillar aggregates and is toxic to cells. Aβ(25-35) decreased MTT reduction to 45% of controls; co-incubation of 15-25-K6 with Aβ(25-35) had no effect on the toxicity of Aβ(25-35).

[9] = Self-aggregation of test peptides alone (sedimentation equilibrium ultracentrifugation, dynamic light scattering, visual observation); type: physicochemical; conditions: peptide alone
Procedure: as §4

[10] = biological target: T1, Aβ(1-39); test: Electron microscopy of Aβ(1-39) fibrils; type: biochemical; conditions: aged approximately one week
Procedure: Solutions of Aβ(1-39) alone (0.5 mg/ml) or with 1 mg/ml 15-25-K6 were prepared as described above and aged at room temperature for approximately one week. A drop of the peptide solution was placed on a Pioloform coated 300 mesh electron microscope copper grid. After blotting, a drop of 1% ammonium molybdate was placed on the grid while being held with fine forceps. The grid was blotted on filter paper and allowed to dry before observing the specimen in a JEOL (Peabody, Mass.) 100 CX Electron Microscope at 60 kV. To further examine the aggregates, electron micrographs were taken. FIG. 3A and B are electron micrographs of (A) Aβ(1-39) alone and (B) Aβ(1-39) with 15-25-K6. Magnification is 72,500x.

[11] = biological target: T1, Aβ(1-39); test: Static light scattering, Aβ(1-39) aggregate molecular weight and morphology (Kratky plot); type: biochemical; conditions: peptide:Aβ 2:1 (16-20-K6 1:2)
Procedure: Solutions of Aβ(1-39) alone or with test peptide at a 2:1 peptide:Aβ molar ratio were prepared as described above. Solutions were incubated at room temperature for 24 hours, after which scattered intensity data as a function of angle were collected and analyzed as described elsewhere (Shen, C.-L. and Murphy, Biophys. J., 1995, supra).
The effect of the test peptide on aggregate size and morphology was probed with static light scattering. […] Thus, the average molecular weight of Aβ(1-39) aggregates was not dramatically affected by any of the peptides tested.
A convenient tool for abstracting particle shape information from angular dependence data is the so-called Kratky plot. FIGS. 2A and B are Kratky plots of Aβ-peptide solutions. Aβ(1-39) was co-incubated with recognition (A) or hybrid (B) peptides for 24 hours, after which SLS data were collected, analyzed, and plotted as Kratky plots. In all cases, Aβ(1-39) concentration was 0.5 mg/ml and the peptide:Aβ molar ratio was 2:1, except for 16-20-K6 for which the molar ratio was lowered to 1:2. In FIG. 2, q is the scattering vector, which is related to the scattering angle, R is the Rayleigh ratio, a function of the scattering intensity, c is the concentration, and K is an instrument constant. Referring to FIG. 2A, the rising curves with an intermediate plateau are characteristic of semiflexible linear chains. […]

[12] = biological target: T1, Aβ(1-39); test: ThT fluorescence spectroscopy with Aβ(1-39); type: biochemical; conditions: one week incubation at room temperature
Procedure: A few samples used for cellular toxicity assays were tested for ThT fluorescence after one week aging and prior to dilution into cell culture medium. ThT (Sigma, St. Louis, Mo.) was dissolved at 100 μM in PBSA. Forty μl peptide solution and 40 μl ThT stock solution were mixed with 920 μl PBSA and briefly vortexed. Fluorescence emission spectra were taken using a Model M-3 Alphascan (Photon Technology International, South Brunswick, N.J.) spectrofluorimeter, with excitation at 450 nm. An increase in fluorescence with a maximum at 482 nm is indicative of amyloid (LeVine, H. Protein Sci. 2:404-410, 1993). Fluorescence intensity for diluted ThT in the absence of peptide was determined and subtracted from sample intensities. ThT fluorescence intensity was measured for Aβ-amyloid(1-39) alone or mixed with 18-25 or 15-25-K6 after one week incubation at room temperature. Samples were diluted 25-fold just prior to measurement. […] Because 16-25 was not soluble in PBS, the assay could not be repeated in a like manner for that peptide; however, a parallel experiment was conducted by dissolution of 16-25 or 18-25 into 35% ACN/TFA followed by mixing with Aβ(1-39) and dilution into PBS.

[13] = biological target: T2, Aβ(25-35) (Homo sapiens, UniProt P05067); test: ThT fluorescence spectroscopy with Aβ(25-35); type: biochemical; conditions: mixed with Aβ(25-35)
T2 construct: A peptide homologous to the 25-35 residues of Aβ, Aβ(25-35), was purchased from Sigma; purchased Sigma (St. Louis, Mo.)

[14] = biological target: Aβ (Homo sapiens, UniProt P05067); conditions: literature; cited from earlier work
Chain of Aβ (Homo sapiens, UniProt P05067) (P05067 672-711 limits assumed): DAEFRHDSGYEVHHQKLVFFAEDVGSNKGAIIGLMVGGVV

**Q.** Which Soluble [1] does the source give for `CC(C)C[C@H](NC(=O)[C@@H](N)CCCCN)C(=O)N[C@H](C(=O)N[C@@H](Cc1ccccc1)C(=O)O)C(C)C` [16-19, KLVF] (H-KLVF-OH) here?
**A.** The Soluble was “yes”.

**Q.** For `CC(C)C[C@H](NC(=O)[C@@H](N)CCCCN)C(=O)N[C@H](C(=O)N[C@@H](Cc1ccccc1)C(=O)N[C@@H](Cc1ccccc1)C(=O)O)C(C)C` [16-20, KLVFF], which Soluble [1] is on record?
**A.** The Soluble was “yes”.

**Q.** What does the source list for `Nc1c(/N=N/c2ccc(-c3ccc(/N=N/c4cc(S(=O)(=O)O)c5ccccc5c4N)cc3)cc2)cc(S(=O)(=O)O)c2ccccc12` [Congo red]?
**A.** effect on Aβ aggregation / fibril formation [2]: disrupt Aβ aggregation; effect on Aβ toxicity [3]: reduce Aβ toxicity

**Q.** Which “effect on Aβ aggregation / fibril formation” value [2] does the source give for `CCCCCCCCCCCCCCCC[N+]1(C)CCCCC1.[Br-]` [hexadecyl-N-methylpiperidinium bromide] here?
**A.** The value was “inhibits Aβ fibril formation”.

**Q.** Which “effect on Aβ toxicity” value [3] does the source give for `OC[C@H]1O[C@@H]2O[C@H]3[C@H](O)[C@@H](O)[C@@H](O[C@H]4[C@H](O)[C@@H](O)[C@@H](O[C@H]5[C@H](O)[C@@H](O)[C@@H](O[C@H]6[C@H](O)[C@@H](O)[C@@H](O[C@H]7[C@H](O)[C@@H](O)[C@@H](O[C@H]8[C@H](O)[C@@H](O)[C@@H](O[C@H]1[C@H](O)[C@H]2O)O[C@@H]8CO)O[C@@H]7CO)O[C@@H]6CO)O[C@@H]5CO)O[C@@H]4CO)O[C@@H]3CO` [β-Cyclodextrin] here?
**A.** Its value is “partially reduces Aβ toxicity”.

**Q.** Which Soluble [1] does the source give for FAEDVG [20-25, FAEDVG] here?
**A.** Its Soluble is “yes”.

**Q.** With FAEDVGKKKKKK [20-25-K6, FAEDVGKKKKKK] as the compound, how does the “solubility in PBSA” value [1] read?
**A.** The value was “readily soluble”.

**Q.** What about the Soluble [1] of the same compound?
**A.** Its Soluble is “yes”.

**Q.** Which Soluble [1] does the source give for FFAEDVG [19-25, FFAEDVG] here?
**A.** The Soluble was “yes”.

**Q.** For “GQKLVFFAEDVGGaKKKKKK (GQKLVFFAEDVGG[Ahx]KKKKKK) [15-25-K6]”, which “protection against Aβ(1-39) toxicity” value [4] is on record?
**A.** Its value is “intermediate in protective effect”.

**Q.** What about the “effect on circular dichroism spectra of Aβ(1-39)” value [5] of the same compound?
**A.** The value was “did not significantly alter”.

**Q.** What about the “effect on Aβ aggregate size / growth rate (hydrodynamic radius vs time)” value [6] of the same compound?
**A.** The value was “dramatic increase”.

**Q.** And the random coil content [7]?
**A.** The random coil content was 36%.

**Q.** What about the β-sheet content [7] of the same compound?
**A.** The β-sheet content was 64%.

**Q.** What about the “effect on toxicity of Aβ(25-35)” value [8] of the same compound?
**A.** Its value is “no effect”.

**Q.** What about the “aggregation state by sedimentation equilibrium ultracentrifugation” value [9] of the same compound?
**A.** The value was “monomeric”.

**Q.** And the “effect on Aβ(1-39) fibril morphology (electron micrographs)” value [10]?
**A.** The value was “did not prevent fibril formation but did appear to reduce the average length of fibrils, and increase the extent of fibril entanglement”.

**Q.** What about the “increase in molecular weight of Aβ aggregates” value ([11]; 24 hours after mixing) of the same compound?
**A.** Its value is 2-2.5 fold.

**Q.** What about the “effect on Aβ(1-39) aggregate shape / morphology (Kratky plot)” value ([11]; 24 hours co-incubation) of the same compound?
**A.** The value was “greatest effect on the particle shape”.

**Q.** And the “effect on ThT fluorescence intensity of Aβ(1-39)” value [12]?
**A.** Its value is “reduced the ThT fluorescence intensity of Aβ(1-39) somewhat”.

**Q.** And the “effect on ThT fluorescence of Aβ(25-35)” value [13]?
**A.** The value was “neither a positive nor a negative effect”.

**Q.** With KKLVFFA as the compound, how does the “interaction with Aβ” value [14] read?
**A.** Its value is “interacts with the homologous sequence in Aβ”.

**Q.** With KLVFFKKKKKK [16-20-K6, KLVFFKKKKKK] as the compound, how does the “solubility in PBSA” value [1] read?
**A.** The value was “readily soluble”.

**Q.** What about the Soluble [1] of the same compound?
**A.** The Soluble was “yes”.

**Q.** For “QKLVTTAE [literature octapeptide with substitutions for the two Phe residues at positions 19 and 20]”, which “effect on Aβ fibril formation” value ([2]; 10-fold molar excess, electron microscopy) is on record?
**A.** The value was “inhibited fibril formation”.

**Q.** Which Soluble [1] does the source give for VFFAEDVG [18-25, VFFAEDVG] here?
**A.** Its Soluble is “yes”.

**Q.** Which Soluble [1] does the source give for VLFKF [16-20S, VLFKF] here?
**A.** The Soluble was “yes”.
